Assays:
[1] = target: T1, Opioid receptors; mu/kappa/delta (Homo sapiens) (UniProt P41145+P41143+P35372); assay: In vitro agonist activity towards opioid receptor on the electrically stimulated Guinea pig ileal longitudinal muscle (GPI); morphine IC50/ agonist IC50 in the same tissue; format: functional; conditions: Cavia porcellus; target entry is the homologue from another species
[2] = target: T1, Opioid receptors; mu/kappa/delta (Homo sapiens); assay: The relative potency was evaluated with respect to morphine.; conditions: Cavia porcellus

T1 sequence (P35372 whole entry, looked up): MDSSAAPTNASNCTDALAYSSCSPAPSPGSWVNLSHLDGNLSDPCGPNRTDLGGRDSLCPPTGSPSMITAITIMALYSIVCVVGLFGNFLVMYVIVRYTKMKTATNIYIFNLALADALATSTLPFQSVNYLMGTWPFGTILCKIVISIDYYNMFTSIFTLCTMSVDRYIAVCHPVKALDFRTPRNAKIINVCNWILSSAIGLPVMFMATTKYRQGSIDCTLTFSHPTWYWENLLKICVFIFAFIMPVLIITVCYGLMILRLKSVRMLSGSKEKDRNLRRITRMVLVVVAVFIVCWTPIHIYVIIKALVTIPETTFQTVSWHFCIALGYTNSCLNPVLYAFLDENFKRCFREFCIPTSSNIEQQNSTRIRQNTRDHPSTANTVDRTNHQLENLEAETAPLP
T1 sequence (P41143 whole entry, looked up): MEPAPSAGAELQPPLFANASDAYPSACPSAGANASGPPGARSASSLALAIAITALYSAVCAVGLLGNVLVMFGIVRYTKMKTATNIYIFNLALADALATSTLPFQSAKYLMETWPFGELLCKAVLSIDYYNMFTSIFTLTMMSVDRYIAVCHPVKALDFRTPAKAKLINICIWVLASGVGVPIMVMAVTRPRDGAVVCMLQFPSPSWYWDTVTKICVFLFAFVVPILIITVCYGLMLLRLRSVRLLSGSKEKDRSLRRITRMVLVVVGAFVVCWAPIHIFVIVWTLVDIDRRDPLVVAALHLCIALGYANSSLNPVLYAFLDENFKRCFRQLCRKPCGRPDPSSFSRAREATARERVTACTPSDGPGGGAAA
T1 sequence (P41145 whole entry, looked up): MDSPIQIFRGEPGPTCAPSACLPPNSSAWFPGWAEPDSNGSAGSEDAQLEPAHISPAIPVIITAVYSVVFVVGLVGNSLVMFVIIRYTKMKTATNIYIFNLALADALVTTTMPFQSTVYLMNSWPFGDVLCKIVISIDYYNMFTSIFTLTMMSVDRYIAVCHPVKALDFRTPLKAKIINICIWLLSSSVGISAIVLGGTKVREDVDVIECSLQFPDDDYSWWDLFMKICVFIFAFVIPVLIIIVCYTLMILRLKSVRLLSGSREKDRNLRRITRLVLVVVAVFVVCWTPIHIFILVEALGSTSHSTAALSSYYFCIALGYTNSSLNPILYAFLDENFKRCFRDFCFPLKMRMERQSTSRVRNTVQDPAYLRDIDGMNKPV

CN1CCC23c4c5ccc(O)c4OC2C(NC(=O)CNC(=O)CNC(=O)CCC(=O)NCC(=O)NCC(=O)NC2CCC4(O)[C@H]6Cc7ccc(O)c8c7C4(CCN6C)C2O8)CCC3(O)[C@H]1C5 (stereo partly drawn)
Potency ratio [1]: 7.6

CC(=O)NCC(=O)NCC(=O)NC1CCC2(O)[C@H]3Cc4ccc(O)c5c4C2(CCN3C)C1O5 (stereo partly drawn)
Potency ratio [1]: 1.9

O=C(CCC(=O)NCC(=O)NCC(=O)NC1CCC2(O)[C@H]3Cc4ccc(O)c5c4C2(CCN3CC2CC2)C1O5)NCC(=O)NCC(=O)NC1CCC2(O)[C@@H]3Cc4ccc(O)c5c4C2(CCN3CC2CC2)C1O5 (single isomer, unassigned; (-))
Relative potency [2]: 33.5
Potency ratio [1]: 181

O=C(CCC(=O)NCC(=O)NCC(=O)NC1CCC2(O)[C@H]3Cc4ccc(O)c5c4C2(CCN3CC2CC2)C1O5)NCC(=O)NCC(=O)NC1CCC2(O)[C@H]3Cc4ccc(O)c5c4C2(CCN3CC2CC2)C1O5 (stereo partly drawn)
Relative potency [2]: 1.4
Potency ratio [1]: 7.8

CC(=O)NCC(=O)NCC(=O)NC1CCC2(O)[C@H]3Cc4ccc(O)c5c4C2(CCN3CC2CC2)C1O5 (stereo partly drawn)
Relative potency [2]: 1
Potency ratio [1]: 5.4
